Measurements taken from publication PMC12712055, “3D-MINFLUX nanoscopy reveals distinct allosteric mechanisms for activation and modulation of PIEZO1 by Yoda1” (Nature Communications, 2025).
pEC50: −log10 of the molar value.

Legend:
Assay in all cases: calcium imaging (genetically encoded Ca2+ indicator), peak F/F0
Type in all cases: cell-based
[1] = target: T1, mouse PIEZO1 (PIEZO1-mScarlet / PIEZO1-ALFA-mGL) (Mus musculus, UniProt E2JF22, F1715A/V1714A)
T1 construct: full-length; C-terminal mScarlet (SG linker), or ALFA tag inserted after H86 plus C-terminal mGreenLantern (SG linker); transiently expressed in N2a-P1KO (mouse Neuro-2a PIEZO1-knockout) cells; homotrimer

[2] = target: T2, mouse PIEZO1 (PIEZO1-mScarlet / PIEZO1-ALFA-mGL) (Mus musculus, UniProt E2JF22)
T2 construct: full-length; C-terminal mScarlet (SG linker), or ALFA tag inserted after H86 plus C-terminal mGreenLantern (SG linker); transiently expressed in N2a-P1KO (mouse Neuro-2a PIEZO1-knockout) cells; homotrimer

[3] = target: T3, mouse PIEZO1 (PIEZO1-mScarlet / PIEZO1-ALFA-mGL) (Mus musculus, UniProt E2JF22, A2094W)
T3 construct: full-length; C-terminal mScarlet (SG linker), or ALFA tag inserted after H86 plus C-terminal mGreenLantern (SG linker); transiently expressed in N2a-P1KO (mouse Neuro-2a PIEZO1-knockout) cells; homotrimer
T3 sequence (E2JF22 whole entry A2094W): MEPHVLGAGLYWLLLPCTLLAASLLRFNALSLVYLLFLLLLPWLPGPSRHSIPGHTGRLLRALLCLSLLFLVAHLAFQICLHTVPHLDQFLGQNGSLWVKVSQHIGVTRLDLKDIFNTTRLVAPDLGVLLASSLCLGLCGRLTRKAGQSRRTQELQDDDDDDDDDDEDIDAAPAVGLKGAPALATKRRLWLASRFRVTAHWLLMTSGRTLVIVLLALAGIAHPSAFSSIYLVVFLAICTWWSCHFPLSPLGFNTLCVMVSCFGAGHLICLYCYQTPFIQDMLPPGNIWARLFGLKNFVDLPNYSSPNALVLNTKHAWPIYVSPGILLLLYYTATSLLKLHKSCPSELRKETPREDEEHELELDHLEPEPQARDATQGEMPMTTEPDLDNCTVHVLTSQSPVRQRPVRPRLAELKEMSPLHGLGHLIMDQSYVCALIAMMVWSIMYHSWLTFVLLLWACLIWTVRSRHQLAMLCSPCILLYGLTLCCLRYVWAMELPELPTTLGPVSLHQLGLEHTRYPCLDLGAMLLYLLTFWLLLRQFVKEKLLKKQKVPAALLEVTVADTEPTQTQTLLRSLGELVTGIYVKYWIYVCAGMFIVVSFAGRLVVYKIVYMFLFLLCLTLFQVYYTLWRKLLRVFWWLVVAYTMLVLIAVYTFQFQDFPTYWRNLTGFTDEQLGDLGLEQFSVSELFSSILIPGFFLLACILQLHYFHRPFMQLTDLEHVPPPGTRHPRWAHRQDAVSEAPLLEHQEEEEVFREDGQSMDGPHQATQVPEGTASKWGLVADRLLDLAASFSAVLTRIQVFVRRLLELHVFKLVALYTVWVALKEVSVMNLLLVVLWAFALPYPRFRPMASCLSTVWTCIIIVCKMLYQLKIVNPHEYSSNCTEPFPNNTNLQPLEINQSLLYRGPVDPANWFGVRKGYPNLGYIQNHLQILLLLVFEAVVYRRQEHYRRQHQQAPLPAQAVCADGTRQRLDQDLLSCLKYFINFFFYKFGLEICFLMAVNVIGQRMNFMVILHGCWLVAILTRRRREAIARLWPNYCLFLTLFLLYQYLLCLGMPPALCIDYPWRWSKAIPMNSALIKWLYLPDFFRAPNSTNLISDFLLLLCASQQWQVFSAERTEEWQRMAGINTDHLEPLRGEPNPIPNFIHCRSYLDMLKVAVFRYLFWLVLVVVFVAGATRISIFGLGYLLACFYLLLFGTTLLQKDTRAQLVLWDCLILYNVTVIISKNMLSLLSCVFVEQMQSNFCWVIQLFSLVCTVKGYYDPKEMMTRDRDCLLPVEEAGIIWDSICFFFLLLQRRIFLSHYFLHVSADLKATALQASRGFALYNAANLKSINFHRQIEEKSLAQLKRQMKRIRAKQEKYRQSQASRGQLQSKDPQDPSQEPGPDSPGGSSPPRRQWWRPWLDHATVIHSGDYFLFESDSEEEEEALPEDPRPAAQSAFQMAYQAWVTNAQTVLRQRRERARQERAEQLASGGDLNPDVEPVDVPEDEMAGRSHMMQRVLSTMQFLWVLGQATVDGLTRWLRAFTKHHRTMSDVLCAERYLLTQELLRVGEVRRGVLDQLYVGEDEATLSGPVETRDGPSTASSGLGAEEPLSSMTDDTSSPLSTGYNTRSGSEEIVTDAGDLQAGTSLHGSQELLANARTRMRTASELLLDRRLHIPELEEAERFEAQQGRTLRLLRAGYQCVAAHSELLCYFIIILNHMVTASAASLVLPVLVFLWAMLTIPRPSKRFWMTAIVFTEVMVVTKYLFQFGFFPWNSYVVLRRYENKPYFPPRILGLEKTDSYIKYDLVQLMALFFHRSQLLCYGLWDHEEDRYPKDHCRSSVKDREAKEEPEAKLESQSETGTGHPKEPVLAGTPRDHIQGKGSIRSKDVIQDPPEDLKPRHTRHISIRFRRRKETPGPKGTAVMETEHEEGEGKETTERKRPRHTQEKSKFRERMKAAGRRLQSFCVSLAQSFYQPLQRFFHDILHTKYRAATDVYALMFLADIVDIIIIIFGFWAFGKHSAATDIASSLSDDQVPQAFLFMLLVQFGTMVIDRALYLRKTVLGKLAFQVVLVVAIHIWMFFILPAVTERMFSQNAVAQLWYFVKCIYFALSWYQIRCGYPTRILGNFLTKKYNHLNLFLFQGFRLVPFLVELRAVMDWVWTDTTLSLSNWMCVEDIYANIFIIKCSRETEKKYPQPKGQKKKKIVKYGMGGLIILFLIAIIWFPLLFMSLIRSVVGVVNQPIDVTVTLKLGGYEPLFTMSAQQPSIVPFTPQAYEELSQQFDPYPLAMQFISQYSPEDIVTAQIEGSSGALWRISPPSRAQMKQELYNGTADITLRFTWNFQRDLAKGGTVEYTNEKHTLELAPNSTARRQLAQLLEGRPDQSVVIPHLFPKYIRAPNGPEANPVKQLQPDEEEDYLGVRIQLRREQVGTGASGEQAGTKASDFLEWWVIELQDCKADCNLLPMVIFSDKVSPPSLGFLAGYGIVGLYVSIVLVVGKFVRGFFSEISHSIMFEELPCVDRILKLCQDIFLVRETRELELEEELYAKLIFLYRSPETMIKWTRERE

T2 sequence (E2JF22 whole entry): as the sequence (E2JF22 whole entry A2094W) above, with W2094A counted along it
T1 sequence (E2JF22 whole entry V1714A/F1715A): as the sequence (E2JF22 whole entry A2094W) above, with V1714A, F1715A, W2094A counted along it

## O=C(O)c1ccc(-c2nnc(SCc3c(Cl)cccc3Cl)s2)cc1 [Yoda2]
[1]
  pEC50: 7.17
[2]
  pEC50: 7.52
[3]
  pEC50: 5.15
